Experimental data from article PMC8509398, “Proteolytic Cleavage of Bioactive Peptides and Protease-Activated Receptors in Acute and Post-Colitis” (International Journal of Molecular Sciences, 2021).
Values belong to the molecule of their own block, whether it stands above or below them. Residues, ends and D or L forms follow the SMILES beside them.

Columns and labels:
thrombin = thrombin (Homo sapiens, UniProt P00734); experiment: Cleavage of peptides by purified thrombin, MALDI-TOF/TOF; conditions: 25 nM protease, 10 µM peptide; for Incubation time at which the first cleavage or decrease of the full-length peptide was observed, thrombin: 37 °C, time points 2, 5, 10, 30 min
Excerpt: (§1) Trypsin-like proteases included in the experiments are trypsin-1, -2 and -3, tryptase (Enzo LifeSciences), thrombin (Sigma-Aldrich) and cathepsin G (Sigma-Aldrich). Trypsin-1, -2 and -3 were produced as described by Koistinen et al. and Wu et al.. Two elastase-like enzymes, neutrophil elastase (Enzo LifeSciences, Farmingdale, NY, USA) and pancreatic elastase I (Sigma-Aldrich) were included as well. All enzymes were from human origin except for pancreatic elastase from porcine pancreas.
(§2) Reaction mixtures with purified enzymes were compiled in an identical way. Each mixture contained an equimolar concentration of protease (25 nM based on) and 10 µM peptide of interest and was incubated for 2, 5, 10 and 30 min at 37 °C. Substance P was added as the standard peptide except for the reaction mixtures with substance P or bradykinin as the peptide of interest, where angiotensin II (Bachem) was added.
(§3) The TFA mixtures were thawed on ice and desalted using C18 zip-tips (Merck Millipore®, Burlington, MA, USA) with a capacity of 5 µg protein. Retained peptide fragments were eluted directly on the MALDI target plate. Next, 0.5 µL of a 2.5 mg/mL α-cyano-4-hydroxycinnamic acid (Sigma-Aldrich) matrix solution (in 70% acetonitrile, 0.1% TFA) was spotted on top of the sample. A 6-Peptide mixture Kit (AB Sciex, Framingham, MA, USA) containing bradykinin (2–9), angiotensin I, glu1-fibrinopeptide, ACTH (1–17), ACTH (18–39) and ACTH (7–38) was diluted with matrix and spotted on the plate as well.
(§4) MS and MS/MS data for peptide fragment identification were obtained with a MALDI-TOF/TOF instrument (4800 MALDI TOF/TOF™, Applied Biosystems, Waltham, MA, USA) and instrument parameters were set using 4000 Series Explorer™ software. MS spectra were recorded in positive reflector mode in a mass range from 500 to 4000 Da and laser intensity of 4500–4800 Hz. The spectra were calibrated using the calibration mixture mentioned above to a mass tolerance of 0.1 Da. MS/MS spectra were recorded with high-energy collision-induced dissociation and the laser intensity was increased by 10%. Precursor mass m/z 1570.65 (Glu1-Fibrinopeptide from the calibration mixture) was used to calibrate the MS/MS spectra to a mass tolerance of 0.1 Da.
(§5) MS and MS/MS spectra were processed using DataExplorer™ software and the obtained output files were uploaded in the MS-PEP data analyzer (https://bioit.shinyapps.io/PARs/ accessed 10/08/2020) for peptide fragment identification. Identified fragments were confirmed using the MS/MS spectra and mMass 5.5.0 by Martin Strohalm. The relative intensities of the fragments were calculated as the ratio of the intensity of the peak of interest to the intensity of the peak of the standard peptide.

trypsin-2 = trypsin-2 (Homo sapiens, UniProt P07478); experiment: Cleavage of peptides by purified trypsin-2, MALDI-TOF/TOF; conditions: 25 nM protease, 10 µM peptide; for Incubation time at which the first cleavage or decrease of the full-length peptide was observed, trypsin-2: 37 °C, time points 2, 5, 10, 30 min
Sequence of trypsin-2 (P07478 24-247): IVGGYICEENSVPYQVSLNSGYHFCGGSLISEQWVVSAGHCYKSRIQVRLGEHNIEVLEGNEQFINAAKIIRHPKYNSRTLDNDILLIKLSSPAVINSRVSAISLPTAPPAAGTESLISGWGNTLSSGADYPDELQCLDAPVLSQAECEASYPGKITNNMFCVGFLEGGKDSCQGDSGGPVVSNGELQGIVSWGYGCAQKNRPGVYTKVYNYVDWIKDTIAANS
Excerpt: as §1, §2, §3, §4, §5

neutrophil elastase = biological target: T1, neutrophil elastase (Homo sapiens, UniProt P08246); experiment: Cleavage of peptides by purified neutrophil elastase, MALDI-TOF/TOF; conditions: 25 nM protease, 10 µM peptide; for Incubation time at which the first cleavage or decrease of the full-length peptide was observed, neutrophil elastase: 37 °C, time points 2, 5, 10, 30 min
T1 sequence (P08246 30-267): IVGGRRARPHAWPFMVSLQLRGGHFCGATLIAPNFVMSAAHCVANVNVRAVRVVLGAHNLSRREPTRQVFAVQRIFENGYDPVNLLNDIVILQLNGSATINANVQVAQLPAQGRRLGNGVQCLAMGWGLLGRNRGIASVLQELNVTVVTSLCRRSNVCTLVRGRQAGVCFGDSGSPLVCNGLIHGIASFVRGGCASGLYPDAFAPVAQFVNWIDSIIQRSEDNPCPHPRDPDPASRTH
Excerpt: as §1
Reaction mixtures with purified enzymes were compiled in an identical way. […] Substance P was added as the standard peptide except for the reaction mixtures with substance P or bradykinin as the peptide of interest, where angiotensin II (Bachem) was added.
as §3
as §4, with “10%.” for “10%. Precursor mass m/z 1570.65 (Glu1-Fibrinopeptide from the calibration mixture) was used to calibrate the MS/MS spectra to a mass tolerance of 0.1 Da.”
Identified fragments were confirmed using the MS/MS spectra and mMass 5.5.0 by Martin Strohalm. The relative intensities of the fragments were calculated as the ratio of the intensity of the peak of interest to the intensity of the peak of the standard peptide.

tryptase = tryptase (Homo sapiens, UniProt Q15661); experiment: Cleavage of peptides by purified tryptase, MALDI-TOF/TOF; conditions: 25 nM protease, 10 µM peptide; for Incubation time at which the first cleavage or decrease of the full-length peptide was observed, tryptase: 37 °C, time points 2, 5, 10, 30 min
Sequence of tryptase (Q15661 31-275): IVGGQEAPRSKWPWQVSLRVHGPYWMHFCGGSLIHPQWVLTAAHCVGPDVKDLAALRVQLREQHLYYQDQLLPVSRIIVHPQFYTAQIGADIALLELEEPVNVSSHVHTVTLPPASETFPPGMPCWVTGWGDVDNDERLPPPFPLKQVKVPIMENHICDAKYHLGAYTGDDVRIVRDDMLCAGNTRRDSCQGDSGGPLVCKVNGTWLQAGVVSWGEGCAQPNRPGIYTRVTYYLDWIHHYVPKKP
Excerpt: as §1, §2, §3, §4, §5

trypsin-1 = trypsin-1 (Homo sapiens, UniProt P07477); experiment: Cleavage of peptides by purified trypsin-1, MALDI-TOF/TOF; conditions: 25 nM protease, 10 µM peptide; for Incubation time at which the first cleavage or decrease of the full-length peptide was observed, trypsin-1: 37 °C, time points 2, 5, 10, 30 min
Excerpt: as §1, §2, §3, §4, §5

trypsin-3 = biological target: T2, trypsin-3 (Homo sapiens, UniProt P35030); experiment: Cleavage of peptides by purified trypsin-3, MALDI-TOF/TOF; conditions: 25 nM protease, 10 µM peptide; for Incubation time at which the first cleavage or decrease of the full-length peptide was observed, trypsin-3: 37 °C, time points 2, 5, 10, 30 min
T2 sequence (P35030 1-304): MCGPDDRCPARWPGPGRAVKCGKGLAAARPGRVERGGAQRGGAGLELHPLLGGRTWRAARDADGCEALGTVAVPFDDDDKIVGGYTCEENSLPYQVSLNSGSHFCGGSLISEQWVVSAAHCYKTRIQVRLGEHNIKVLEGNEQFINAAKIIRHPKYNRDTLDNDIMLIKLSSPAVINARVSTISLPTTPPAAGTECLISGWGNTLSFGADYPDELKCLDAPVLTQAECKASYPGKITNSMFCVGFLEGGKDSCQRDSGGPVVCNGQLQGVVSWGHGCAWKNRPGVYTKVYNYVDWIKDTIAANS
Excerpt: as §1, §2, §3, §4, §5

[1] = PAR-based peptides, 37 °C, 2, 5, 10 and 30 min
[2] = 37 °C, 2, 5, 10 and 30 min, stopped with 2% TFA

Incubation time at which the first cleavage or decrease of the full-length peptide was observed, thrombin (thrombin): > 30 min
TL disarming (D), Thrombin (thrombin; [1]): −
TL unmasking (U), Thrombin (thrombin; [1]): −
Incubation time at which the first cleavage or decrease of the full-length peptide was observed, trypsin-2 (trypsin-2): 2 min
TL disarming (D), Trypsin-2 (trypsin-2; [1]): −
TL unmasking (U), Trypsin-2 (trypsin-2; [1]): +++ (ultrafast processing within 2 min)
Incubation time at which the first cleavage or decrease of the full-length peptide was observed, neutrophil elastase (neutrophil elastase): 30 min
TL disarming (D), Neutrophil Elastase (neutrophil elastase; [1]): + (processing after 10 or 30 min)
TL unmasking (U), Neutrophil Elastase (neutrophil elastase; [1]): −
Incubation time at which the first cleavage or decrease of the full-length peptide was observed, tryptase (tryptase): 2 min
TL disarming (D), Tryptase (tryptase; [1]): −
TL unmasking (U), Tryptase (tryptase; [1]): +++ (ultrafast processing within 2 min)
Incubation time at which the first cleavage or decrease of the full-length peptide was observed, trypsin-1 (trypsin-1): 2 min
TL disarming (D), Trypsin-1 (trypsin-1; [1]): −
TL unmasking (U), Trypsin-1 (trypsin-1; [1]): +++ (ultrafast processing within 2 min)
Incubation time at which the first cleavage or decrease of the full-length peptide was observed, trypsin-3 (trypsin-3): > 30 min
TL disarming (D), Trypsin-3 (trypsin-3; [1]): −
TL unmasking (U), Trypsin-3 (trypsin-3; [1]): −
Compound: CC[C@H](C)[C@H](NC(=O)[C@H](CC(C)C)NC(=O)[C@H](CO)NC(=O)[C@H](CCCNC(=N)N)NC(=O)CNC(=O)[C@H](CCCCN)NC(=O)[C@H](CO)NC(=O)[C@H](CO)NC(=O)[C@H](CCCNC(=N)N)NC(=O)[C@H](CC(N)=O)NC(=O)[C@@H](NC(=O)CNC(=O)[C@H](CCC(N)=O)NC(=O)[C@@H](NC(=O)[C@@H](N)[C@@H](C)O)[C@@H](C)CC)[C@@H](C)O)C(=O)NCC(=O)N[C@@H](CCCCN)C(=O)N[C@H](C(=O)N[C@@H](CC(=O)O)C(=O)NCC(=O)N[C@H](C(=O)N[C@@H](CO)C(=O)N[C@@H](Cc1c[nH]cn1)C(=O)N[C@H](C(N)=O)C(C)C)[C@@H](C)O)C(C)C [PAR2-based] (H-TIQGTNRSSKGRSLIGKVDGTSHV-NH2)

Compound: CC[C@H](C)[C@H](NC(=O)[C@H](CO)NC(=O)[C@H](CC(N)=O)NC(=O)[C@H](CC(C)C)NC(=O)[C@H](Cc1ccc(O)cc1)NC(=O)[C@H](CCCCN)NC(=O)[C@H](CCCCN)NC(=O)[C@@H](NC(=O)[C@H](C)NC(=O)[C@H](CCSC)NC(=O)[C@H](CCC(N)=O)NC(=O)[C@H](CCCCN)NC(=O)[C@H](CCCN=C(N)N)NC(=O)[C@H](CC(C)C)NC(=O)[C@H](CCCN=C(N)N)NC(=O)[C@@H](NC(=O)[C@H](Cc1ccc(O)cc1)NC(=O)[C@H](CC(N)=O)NC(=O)[C@H](CC(=O)O)NC(=O)[C@@H](NC(=O)[C@H](Cc1ccccc1)NC(=O)[C@@H](NC(=O)[C@H](C)NC(=O)[C@H](CC(=O)O)NC(=O)[C@H](CO)NC(=O)[C@@H](N)Cc1c[nH]cn1)C(C)C)[C@@H](C)O)[C@@H](C)O)C(C)C)C(=O)N[C@@H](CC(C)C)C(=O)N[C@@H](CC(N)=O)C(N)=O [VIP, Vasoactive intestinal peptide]
Efficiency of the first cleavage in the peptide, Thrombin (thrombin; [2]): −
Incubation time at which the first cleavage or decrease of the full-length peptide was observed, thrombin (thrombin): > 30 min
Efficiency of the first cleavage in the peptide, Trypsin-2 (trypsin-2; [2]): +++ (ultrafast processing within 2 min)
Incubation time at which the first cleavage or decrease of the full-length peptide was observed, trypsin-2 (trypsin-2): 2 min
Efficiency of the first cleavage in the peptide, Neutrophil Elastase (neutrophil elastase; [2]): +++ (ultrafast processing within 2 min)
Incubation time at which the first cleavage or decrease of the full-length peptide was observed, neutrophil elastase (neutrophil elastase): 2 min
Efficiency of the first cleavage in the peptide, Tryptase (tryptase; [2]): +++ (ultrafast processing within 2 min)
Incubation time at which the first cleavage or decrease of the full-length peptide was observed, tryptase (tryptase): 2 min
Efficiency of the first cleavage in the peptide, Trypsin-1 (trypsin-1; [2]): +++ (ultrafast processing within 2 min)
Incubation time at which the first cleavage or decrease of the full-length peptide was observed, trypsin-1 (trypsin-1): 2 min
Efficiency of the first cleavage in the peptide, Trypsin-3 (trypsin-3; [2]): +++ (ultrafast processing within 2 min)
Incubation time at which the first cleavage or decrease of the full-length peptide was observed, trypsin-3 (trypsin-3): 2 min
